In patent US20220282217A1, “COMPOSITIONS AND METHODS FOR PREPARING T CELL COMPOSITIONS AND USES THEREOF” (priority 2019, published 2022):
Where two headings read alike, the source gives them in different places. Where a SMILES comes first, the peptide text is derived from it.

Molecular target: HLA-A02.01 (Homo sapiens, UniProt P04439, D140Y/D185E/D98H/E176V/E277Q/G131W/G231S/I119V/I121R/I166T/I218V/L300P/L318F/N151K/N90K/P208A/P217A/Q86G/Q94H/R138H/R169H/T345S)
Assay: Class I MHC peptide binding affinity (displacement of radiolabeled reference peptide)
Conditions: for IC50: allele A02.01, (nM))
Protocol: In brief, MHCI complexes were prepared and bound to radiolabeled reference peptides. Peptides were incubated at varying concentrations with these complexes for 2 days, and the amount of remaining radiolabeled peptide bound to […] was measured using size exclusion gel-filtration.

[1] = read-out: Observed Affinity (IC50

| IC50 [1] | SMILES | other results |
| --- | --- | --- |
| 12.7 nM | CC[C@H](C)[C@H](N)C(=O)N[C@H](C(=O)N[C@@H](CO)C(=O)N[C@@H](CCCNC(=N)N)C(=O)N[C@H](C(=O)N[C@@H](CC(C)C)C(=O)N[C@@H](CC(C)C)C(=O)N[C@@H](CC(C)C)C(=O)N[C@H](C(=O)O)C(C)C)[C@@H](C)O)C(C)C (H-IVSRTLLLV-OH; N-terminus and C-terminus assumed) |  |
| 101 nM | CC[C@H](C)[C@H](NC(=O)[C@H](CC(C)C)NC(=O)[C@@H]1CCCN1C(=O)[C@H](Cc1ccccc1)NC(=O)[C@H](CC(C)C)NC(=O)[C@H](CCC(=O)O)NC(=O)[C@@H]1CCCN1C(=O)CNC(=O)[C@@H](N)CCCCN)C(=O)O (H-KGPELFPLI-OH) |  |
| 1400 nM | CC[C@H](C)[C@H](NC(=O)[C@@H](N)CCCCN)C(=O)N[C@H](C(=O)N[C@@H](CCC(=O)O)C(=O)N[C@@H](CCC(N)=O)C(=O)N[C@@H](CCC(=O)O)C(=O)N[C@@H](CCCCN)C(=O)N[C@@H](CC(=O)O)C(=O)N[C@@H](Cc1ccccc1)C(=O)N[C@@H](CC(C)C)C(=O)O)[C@@H](C)O (H-KITEQEKDFL-OH; N-terminus and C-terminus assumed) |  |
| 289 nM | CSCC[C@H](NC(=O)[C@H](CC(C)C)NC(=O)[C@H](CCCCN)NC(=O)[C@@H](N)CCCCN)C(=O)N[C@@H](CC(C)C)C(=O)N[C@@H](CC(C)C)C(=O)N[C@@H](CCCNC(=N)N)C(=O)N[C@@H](CC(C)C)C(=O)N[C@@H](CC(N)=O)C(=O)N[C@@H](CC(C)C)C(=O)O (H-KKLMLLRLNL-OH; N-terminus and C-terminus assumed) |  |
| 26.5 nM | CC(C)C[C@H](NC(=O)[C@H](CO)NC(=O)[C@@H](NC(=O)[C@@H](NC(=O)[C@H](CO)NC(=O)[C@H](CO)NC(=O)[C@H](Cc1c[nH]c2ccccc12)NC(=O)[C@H](CCC(N)=O)NC(=O)[C@@H](N)CCCCN)C(C)C)[C@@H](C)O)C(=O)O (H-KQWSSVTSL-OH; N-terminus and C-terminus assumed) |  |
| 280 nM | CC(C)C[C@H](NC(=O)[C@H](CCCNC(=N)N)NC(=O)[C@@H](NC(=O)[C@H](CC(C)C)NC(=O)[C@H](CO)NC(=O)[C@@H](N)CCCCN)C(C)C)C(=O)N[C@@H](CO)C(=O)N[C@@H](CO)C(=O)N[C@@H](CS)C(=O)N[C@H](C(=O)O)C(C)C (H-KSLVRLSSCV-OH; N-terminus and C-terminus assumed) |  |
| 3510 nM | CC[C@H](C)[C@H](NC(=O)[C@@H](N)CC(C)C)C(=O)N[C@@H](CCSC)C(=O)N[C@@H](CCC(N)=O)C(=O)N[C@@H](CC(C)C)C(=O)N[C@@H](CCSC)C(=O)N1CCC[C@H]1C(=O)N[C@@H](Cc1ccccc1)C(=O)NCC(=O)O (H-LIMQLMPFG-OH; N-terminus and C-terminus assumed) | Kd (EGFR T790M peptides, HLA allele A02.01, read-out: Affinity): 3.34 µM |
| 10900 nM | CC[C@H](C)[C@H](NC(=O)[C@@H](N)CC(C)C)C(=O)N[C@H](C(=O)N[C@@H](CO)C(=O)N[C@@H](CCCNC(=N)N)C(=O)N[C@H](C(=O)N[C@@H](CC(C)C)C(=O)N[C@@H](CC(C)C)C(=O)N[C@@H](CC(C)C)C(=O)N[C@H](C(=O)O)C(C)C)[C@@H](C)O)C(C)C (H-LIVSRTLLLV-OH; N-terminus and C-terminus assumed) |  |
|  | CC[C@H](C)[C@H](NC(=O)[C@H](CC(=O)O)NC(=O)[C@H](CC(C)C)NC(=O)[C@@H](N)CC(C)C)C(=O)N[C@@H](CC(C)C)C(=O)N[C@@H](CC(=O)O)C(=O)N[C@H](C(=O)N[C@@H](C)C(=O)NCC(=O)N[C@@H](CC(C)C)C(=O)O)[C@@H](C)O (H-LLDILDTAGL-OH; N-terminus and C-terminus assumed) | IC50 (Observed Affinity (IC50): 716 nM |
| 2080 nM | CC(C)C[C@H](NC(=O)[C@@H](N)CC(C)C)C(=O)NCC(=O)N[C@@H](CCCNC(=N)N)C(=O)N[C@@H](CC(N)=O)C(=O)N[C@@H](CO)C(=O)N[C@@H](Cc1ccccc1)C(=O)N[C@@H](CCC(=O)O)C(=O)N[C@H](C(=O)N[C@@H](CS)C(=O)O)C(C)C (H-LLGRNSFEVC-OH; N-terminus and C-terminus assumed) |  |
| 2.8 nM | CC(C)C[C@H](NC(=O)[C@@H]1CCCN1C(=O)[C@@H]1CCCN1C(=O)[C@@H](NC(=O)[C@H](CC(=O)O)NC(=O)[C@H](CCC(=O)O)NC(=O)[C@@H]1CCCN1C(=O)[C@H](CC(C)C)NC(=O)[C@@H](N)CC(C)C)[C@@H](C)O)C(=O)O (H-LLPEDTPPL-OH; N-terminus and C-terminus assumed) |  |
| 45 nM | CC(C)C[C@H](NC(=O)[C@@H](N)CC(C)C)C(=O)N[C@@H](CCC(N)=O)C(=O)N[C@@H](CCC(=O)O)C(=O)N[C@@H](Cc1ccccc1)C(=O)N[C@@H](CC(=O)O)C(=O)N[C@H](C(=O)N[C@@H](CCC(N)=O)C(=O)N[C@@H](CCC(=O)O)C(=O)N[C@@H](C)C(=O)O)C(C)C (H-LLQEFDVQEA-OH) |  |
| 677 nM | CC(C)C[C@H](NC(=O)[C@@H](N)CC(C)C)C(=O)N[C@@H](CCC(N)=O)C(=O)N[C@H](C(=O)N[C@H](C(=O)N[C@@H](CCC(N)=O)C(=O)N[C@H](C(=O)N[C@@H](CO)C(=O)N[C@@H](Cc1ccccc1)C(=O)N[C@@H](C)C(=O)O)[C@@H](C)O)[C@@H](C)O)C(C)C (H-LLQVTQTSFA-OH; N-terminus and C-terminus assumed) |  |
|  | CC(C)C[C@H](NC(=O)[C@@H](N)CC(C)C)C(=O)N[C@@H](CO)C(=O)N[C@H](C(=O)N1CCC[C@H]1C(=O)N1CCC[C@H]1C(=O)N[C@@H](CC(C)C)C(=O)N[C@@H](CO)C(=O)N1CCC[C@H]1C(=O)N[C@@H](CO)C(=O)O)[C@@H](C)O (H-LLSTPPLSPS-OH; N-terminus and C-terminus assumed) | IC50 (Observed Affinity (IC50): 1770 nM |
| 1240 nM | CC(C)C[C@H](NC(=O)[C@H](CCCNC(=N)N)NC(=O)[C@@H](NC(=O)[C@@H](N)CC(C)C)C(C)C)C(=O)N[C@@H](CO)C(=O)N[C@@H](CO)C(=O)N[C@@H](CS)C(=O)N[C@H](C(=O)N1CCC[C@H]1C(=O)N[C@H](C(=O)O)C(C)C)C(C)C (H-LVRLSSCVPV-OH; N-terminus and C-terminus assumed) |  |
| 1710 nM | CSCC[C@H](N)C(=O)N[C@@H](CO)C(=O)N[C@H](C(=O)N[C@@H](CS)C(=O)N[C@@H](Cc1ccccc1)C(=O)N[C@@H](Cc1ccccc1)C(=O)N[C@@H](Cc1ccccc1)C(=O)N[C@@H](Cc1ccccc1)C(=O)N[C@@H](CO)C(=O)N[C@H](C(=O)O)C(C)C)C(C)C (H-MSVCFFFFSV-OH; N-terminus and C-terminus assumed) |  |
| 503 nM | CC(C)[C@H](NC(=O)[C@H](Cc1c[nH]cn1)NC(=O)[C@@H](NC(=O)[C@H](CCC(=O)O)NC(=O)[C@H](Cc1ccccc1)NC(=O)[C@H](CO)NC(=O)[C@@H](N)CC(N)=O)C(C)C)C(=O)N[C@@H](CS)C(=O)N[C@@H](C)C(=O)O (H-NSFEVHVCA-OH; N-terminus and C-terminus assumed) |  |
| 3030 nM | CC(C)C[C@H](NC(=O)[C@H](CC(C)C)NC(=O)[C@H](CC(=O)O)NC(=O)[C@H](CS)NC(=O)[C@H](CC(C)C)NC(=O)[C@@H]1CCCN1C(=O)[C@@H](NC(=O)[C@@H](NC(=O)[C@@H](N)CC(N)=O)C(C)C)C(C)C)C(=O)O (H-NVVPLCDLL-OH; N-terminus and C-terminus assumed) |  |
| 1370 nM | CC(C)C[C@H](NC(=O)[C@H](CC(C)C)NC(=O)[C@H](CC(C)C)NC(=O)[C@H](CC(=O)O)NC(=O)[C@H](CS)NC(=O)[C@H](CC(C)C)NC(=O)[C@@H]1CCCN1C(=O)[C@@H](NC(=O)[C@@H](NC(=O)[C@@H](N)CC(N)=O)C(C)C)C(C)C)C(=O)O (H-NVVPLCDLLL-OH; N-terminus and C-terminus assumed) |  |
| 2900 nM | CC(C)C[C@H](NC(=O)[C@H](CC(C)C)NC(=O)[C@H](CC(=O)O)NC(=O)[C@H](CC(N)=O)NC(=O)[C@H](CC(C)C)NC(=O)[C@@H]1CCCN1C(=O)[C@@H](NC(=O)[C@@H](NC(=O)[C@@H](N)CC(N)=O)C(C)C)C(C)C)C(=O)O (H-NVVPLNDLL-OH; N-terminus and C-terminus assumed) |  |
| 4190 nM | CC(C)C[C@H](NC(=O)[C@H](CC(C)C)NC(=O)[C@H](CC(C)C)NC(=O)[C@H](CC(=O)O)NC(=O)[C@H](CC(N)=O)NC(=O)[C@H](CC(C)C)NC(=O)[C@@H]1CCCN1C(=O)[C@@H](NC(=O)[C@@H](NC(=O)[C@@H](N)CC(N)=O)C(C)C)C(C)C)C(=O)O (H-NVVPLNDLLL-OH; N-terminus and C-terminus assumed) |  |
| 916 nM | CC(C)C[C@H](NC(=O)[C@H](CC(C)C)NC(=O)[C@H](CC(=O)O)NC(=O)[C@H](CO)NC(=O)[C@H](CC(C)C)NC(=O)[C@@H]1CCCN1C(=O)[C@@H](NC(=O)[C@@H](NC(=O)[C@@H](N)CC(N)=O)C(C)C)C(C)C)C(=O)O (H-NVVPLSDLL-OH; N-terminus and C-terminus assumed) |  |
| 741 nM | CC(C)C[C@H](NC(=O)[C@H](CC(C)C)NC(=O)[C@H](CC(C)C)NC(=O)[C@H](CC(=O)O)NC(=O)[C@H](CO)NC(=O)[C@H](CC(C)C)NC(=O)[C@@H]1CCCN1C(=O)[C@@H](NC(=O)[C@@H](NC(=O)[C@@H](N)CC(N)=O)C(C)C)C(C)C)C(=O)O (H-NVVPLSDLLL-OH; N-terminus and C-terminus assumed) |  |
| 10500 nM | CC(C)C[C@H](NC(=O)[C@H](CC(C)C)NC(=O)CNC(=O)[C@H](Cc1ccc(O)cc1)NC(=O)[C@H](CC(C)C)NC(=O)[C@@H]1CCCN1C(=O)[C@@H](NC(=O)[C@@H](NC(=O)[C@@H](N)CC(N)=O)C(C)C)C(C)C)C(=O)O (H-NVVPLYGLL-OH; N-terminus and C-terminus assumed) |  |

| SMILES | IC50 [1] | other results |
| --- | --- | --- |
| CC[C@H](C)[C@H](NC(=O)[C@@H](NC(=O)[C@@H](NC(=O)[C@H](CC(C)C)NC(=O)[C@@H](NC(=O)[C@@H]1CCCN1C(=O)[C@H](CCCNC(=N)N)NC(=O)[C@H](CCC(N)=O)NC(=O)[C@@H](N)CC(N)=O)[C@@H](C)CC)[C@@H](C)O)[C@@H](C)CC)C(=O)O (H-NQRPILTII-OH; N-terminus and C-terminus assumed) | 9610 nM |  |
